Reference: the CheMixHub viscosity set

Assay: xn = mol fraction of the nth substance listed

OCCO + CCCO
Settings | viscosity [mPa·s]
298.15 K, 101 kPa, x1 = 0.442 | 4.972
298.15 K, 101.33 kPa, x1 = 0.0111 | 2.005
298.15 K, 101.33 kPa, x1 = 0.0207 | 2.055
298.15 K, 101.33 kPa, x1 = 0.0321 | 2.115
298.15 K, 101.33 kPa, x1 = 0.0482 | 2.198
298.15 K, 101.33 kPa, x1 = 0.0722 | 2.331
298.15 K, 101.33 kPa, x1 = 0.0979 | 2.467
298.15 K, 101.33 kPa, x1 = 0.1442 | 2.723
298.15 K, 101.33 kPa, x1 = 0.1912 | 3.012
298.15 K, 101.33 kPa, x1 = 0.2372 | 3.32
298.15 K, 101.33 kPa, x1 = 0.2938 | 3.751
298.15 K, 101.33 kPa, x1 = 0.345 | 4.192
298.15 K, 101.33 kPa, x1 = 0.3886 | 4.617
298.15 K, 101.33 kPa, x1 = 0.4295 | 5.053
298.15 K, 101.33 kPa, x1 = 0.4681 | 5.512
298.15 K, 101.33 kPa, x1 = 0.5096 | 6.052
298.15 K, 101.33 kPa, x1 = 0.5452 | 6.565
298.15 K, 101.33 kPa, x1 = 0.5843 | 7.175
298.15 K, 101.33 kPa, x1 = 0.6533 | 8.397
298.15 K, 101.33 kPa, x1 = 0.6993 | 9.322
298.15 K, 101.33 kPa, x1 = 0.7522 | 10.5
298.15 K, 101.33 kPa, x1 = 0.7998 | 11.68
298.15 K, 101.33 kPa, x1 = 0.84 | 12.75
298.15 K, 101.33 kPa, x1 = 0.8875 | 14.13
298.15 K, 101.33 kPa, x1 = 0.918 | 15.08
298.15 K, 101.33 kPa, x1 = 0.9609 | 16.5
298.15 K, 101.33 kPa, x2 = 0.0188 | 17.2
308.15 K, 101 kPa, x1 = 0.442 | 3.67
318.15 K, 101 kPa, x1 = 0.442 | 2.755

CCOC(=O)CCBr + CCCCCC
303.15 K, 101 kPa
Settings | viscosity [mPa·s]
x1 = 0.2142 | 0.3919
x1 = 0.4043 | 0.55
x1 = 0.5019 | 0.674
x1 = 0.6029 | 0.8315
x1 = 0.8046 | 1.263

C=CCN=C=S + CCNc1ccccc1
viscosity [mPa·s], 101 kPa
Settings | x1 = 0.2366 | x1 = 0.4021 | x1 = 0.4673 | x1 = 0.5 | x1 = 0.5346 | x1 = 0.6032 | x1 = 0.7385
298.15 K | 5.955 | 18.81 | 37.55 | 48.24 | 29.45 | 7.747 | 2.277
323.15 K | 2.83 | 6.28 | 9.92 | 11.98 | 8.399 | 3.234 | 1.313

OCCO + CN1CCCC1=O
101.33 kPa
Settings | viscosity [mPa·s]
298.15 K, x2 = 0.04751 | 15.44
298.15 K, x2 = 0.09916 | 13.78
298.15 K, x2 = 0.1991 | 10.76
298.15 K, x2 = 0.3018 | 8.242
298.15 K, x2 = 0.4012 | 6.415
298.15 K, x2 = 0.5073 | 4.977
298.15 K, x2 = 0.6067 | 3.952
298.15 K, x2 = 0.7014 | 3.171
298.15 K, x2 = 0.8018 | 2.527
298.15 K, x2 = 0.9001 | 2.066
298.15 K, x2 = 0.9545 | 1.852
308.15 K, x2 = 0.04799 | 10.58
308.15 K, x2 = 0.1004 | 9.465
308.15 K, x2 = 0.2025 | 7.514
308.15 K, x2 = 0.3042 | 5.982
308.15 K, x2 = 0.4097 | 4.697
308.15 K, x2 = 0.5032 | 3.855
308.15 K, x2 = 0.6042 | 3.122
308.15 K, x2 = 0.6992 | 2.566
308.15 K, x2 = 0.7967 | 2.112
308.15 K, x2 = 0.9027 | 1.716
308.15 K, x2 = 0.9599 | 1.543
318.15 K, x2 = 0.04516 | 7.524
318.15 K, x2 = 0.1031 | 6.736
318.15 K, x2 = 0.1996 | 5.567
318.15 K, x2 = 0.2999 | 4.538
318.15 K, x2 = 0.4047 | 3.687
318.15 K, x2 = 0.5078 | 3.015
318.15 K, x2 = 0.6054 | 2.505
318.15 K, x2 = 0.6952 | 2.124
318.15 K, x2 = 0.7968 | 1.771
318.15 K, x2 = 0.8899 | 1.498
318.15 K, x2 = 0.9612 | 1.327

CCCCCCCCCc1ccccc1 + CCCCCCCCCCCC
viscosity [mPa·s], 102 kPa
Settings | x1 = 0.1006 | x1 = 0.2 | x1 = 0.3002 | x1 = 0.4001 | x1 = 0.5 | x1 = 0.5999 | x1 = 0.7004 | x1 = 0.8064 | x1 = 0.8998
293.15 K | 1.59 | 1.69 | 1.81 | 1.94 | 2.09 | 2.25 | 2.44 | 2.66 | 2.88
303.15 K | 1.33 | 1.41 | 1.5 | 1.61 | 1.72 | 1.84 | 1.99 | 2.15 | 2.31
313.15 K | 1.13 | 1.2 | 1.27 | 1.35 | 1.44 | 1.54 | 1.65 | 1.78 | 1.9
323.15 K | 0.971 | 1.03 | 1.09 | 1.16 | 1.23 | 1.31 | 1.4 | 1.5 | 1.59

NCc1ccccc1 + CC(C)CCO
viscosity [mPa·s], 101.33 kPa
Settings | x1 = 0.0999 | x1 = 0.1999 | x1 = 0.3 | x1 = 0.4 | x1 = 0.5 | x1 = 0.6 | x1 = 0.7 | x1 = 0.8 | x1 = 0.9
298.15 K | 3.425 | 3.149 | 2.901 | 2.684 | 2.474 | 2.284 | 2.103 | 1.941 | 1.806
303.15 K | 2.914 | 2.672 | 2.455 | 2.259 | 2.099 | 1.937 | 1.803 | 1.683 | 1.582
308.15 K | 2.536 | 2.319 | 2.142 | 1.979 | 1.833 | 1.706 | 1.602 | 1.51 | 1.441

CCCCCCCCCc1ccccc1 + CCCCCCC
313.15 K, 100 kPa
Settings | viscosity [mPa·s]
x2 = 0.097 | 1.82
x2 = 0.265 | 1.398
x2 = 0.405 | 1.111
x2 = 0.523 | 0.918
x2 = 0.671 | 0.691
x2 = 0.754 | 0.59
x2 = 0.86 | 0.411

CCC(=O)c1ccccc1 + COCCO
viscosity [mPa·s], 101 kPa
Settings | x1 = 0.0624 | x1 = 0.1302 | x1 = 0.2041 | x1 = 0.2852 | x1 = 0.3744 | x1 = 0.4731 | x1 = 0.5827 | x1 = 0.7054 | x1 = 0.8434
303.15 K | 1.568 | 1.562 | 1.557 | 1.551 | 1.545 | 1.54 | 1.534 | 1.529 | 1.523
308.15 K | 1.394 | 1.398 | 1.403 | 1.408 | 1.414 | 1.422 | 1.431 | 1.442 | 1.454
313.15 K | 1.234 | 1.246 | 1.259 | 1.274 | 1.292 | 1.312 | 1.334 | 1.359 | 1.388
318.15 K | 1.108 | 1.125 | 1.145 | 1.167 | 1.192 | 1.22 | 1.251 | 1.287 | 1.328

CC(CC(C)(C)C)CP(=O)([O-])CC(C)CC(C)(C)C.CCCCCCCC[P+](C)(C)C (centres undefined) + CCCCCCCCCCCC
viscosity [mPa·s], 101 kPa
Settings | 298.15 K | 303.15 K | 308.15 K | 313.15 K | 318.15 K | 323.15 K
x2 = 0.24 | 172 | 129 | 99.8 | 79.4 | 63.3 | 51.3
x2 = 0.41 | 58.2 | 46 | 36.5 | 30 | 25 | 21.3
x2 = 0.55 | 23.8 | 20.1 | 17.1 | 14.9 | 12.9 | –
